± gives the standard deviation of the averaged measurements.
Assays:
Assay in all cases: level (log10 ratio to DMSO vehicle control); higher = higher biomarker level / cell amount than vehicle control
Conditions in all cases: in DMSO
[1] = compound: CCN(CCO)S(=O)(=O)C(F)(F)C(F)(F)C(F)(F)C(F)(F)C(F)(F)C(F)(F)C(F)(F)C(F)(F)F [N-Ethyl-N-(2-hydroxyethyl)perfluorooctanesulfonamide]
Description: (§1)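 BioMAP Diversity Plus panel of 12 human primary cell co-culture systems (3C, 4H, LPS, SAg, BT, BF4T, BE3C, CASM3C, HDF3CGF, KF3CT, MyoF, Mphg). Compounds were added 1 h before stimulation and left for 24 h (MyoF 48 h; BT 72 h for soluble read-outs or 6 d for IgG). Biomarkers were read by ELISA, cytotoxicity by SRB, PBMC viability and proliferation by Alamar Blue. Each well value was divided by the mean of 8 DMSO control wells on the same plate and log10 transformed; duplicate blinded samples were tested at 4 concentrations.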

[2] = compound: O=C(O)C(F)(F)OC(F)(F)C(F)(F)OC(F)(F)F [Perfluoro-3,6-dioxaheptanoic acid]
Description: as §1

[3] = compound: O=C(O)C(F)(F)C(F)(F)OC(F)(F)F [Perfluoro-3-methoxypropanoic acid]
Description: as §1

[4] = compound: O=C(O)C(F)(F)C(F)(F)C(F)(F)C(F)(F)F [Perfluoropentanoic acid]
Description: as §1

[5] = compound: FC(F)(F)C(F)(F)C(F)(F)C(F)(F)C(F)(F)C(F)(F)C(F)(F)C(F)(F)CCS [2-(Perfluorooctyl)ethanthiol]
Description: as §1

[6] = compound: O=C(O)C(F)(F)C(F)(F)C(F)(F)OC(F)(C(F)(F)F)C(F)(F)F [Perfluoro-4-isopropoxybutanoic acid]
Description: as §1

[7] = compound: NC(=O)C(F)(F)C(F)(F)C(F)(F)F [Heptafluorobutyramide]
Description: as §1

Test System | level (log10) ([1]; 6700 nM) | level (log10) ([1]; 20000 nM) | level (log10) ([2]; 6700 nM) | level (log10) ([2]; 20000 nM) | level (log10) ([2]; 60000 nM) | level (log10) ([3]; 6700 nM) | level (log10) ([3]; 20000 nM) | level (log10) ([3]; 60000 nM) | level (log10) ([4]; 6700 nM) | level (log10) ([4]; 20000 nM) | level (log10) ([4]; 60000 nM) | level (log10) ([5]; 6700 nM) | level (log10) ([5]; 20000 nM) | level (log10) ([6]; 6700 nM) | level (log10) ([6]; 20000 nM) | level (log10) ([6]; 60000 nM) | level (log10) ([7]; 6700 nM) | level (log10) ([7]; 20000 nM) | level (log10) ([7]; 60000 nM)
BF4T:CXCL8/IL-8 | -0.015 ± 0.014 | -0.004 ± 0.0014 | 0.044 ± 0.034 | 0.0475 ± 0.015 | 0.073 ± 0.045 | -0.004 ± 0.025 | -0.0225 ± 0.042 | 0.001 ± 0.068 | -0.0345 ± 0.013 | -0.0295 ± 0.013 | -0.0105 ± 0.035 | 0.0625 ± 0.037 | 0.0505 ± 0.05 | 0.0025 ± 0.0064 | 0.0145 ± 0.005 | 0.0235 ± 0.028 | 0.032 ± 0.061 | 0.024 ± 0.057 | 0.0155 ± 0.012
BF4T:IL-1alpha | 0.008 ± 0.016 | -0.0175 ± 0.015 | -0.0225 ± 0.035 | -0.021 ± 0.024 | -0.0105 ± 0.018 | -0.0055 ± 0.03 | -0.021 ± 0.0042 | 0.004 ± 0.045 | -0.016 ± 0.0085 | -0.005 ± 0.0071 | 0.0155 ± 0.046 | -0.036 ± 0.018 | -0.023 ± 0.017 | -0.008 ± 0.018 | -0.0245 ± 0.015 | -0.012 ± 0.023 | 0.005 ± 0.02 | -0.0045 ± 0.012 | 0.016 ± 0.0071
BF4T:Keratin 8/18 | -0.002 ± 0.0014 | -0.0005 ± 0.0021 | -0.025 ± 0.023 | -0.001 ± 0.014 | -0.0095 ± 0.018 | -0.002 ± 0.031 | -0.003 ± 0.0085 | 0.016 ± 0.011 | 0.0055 ± 0.0064 | -0.002 ± 0.0085 | 0.0055 ± 0.03 | -0.0415 ± 0.0064 | -0.0615 ± 0.03 | -0.002 ± 0.0014 | -0.0115 ± 0.0021 | 0.0025 ± 0.011 | -0.0015 ± 0.03 | 0.0065 ± 0.026 | 0.0055 ± 0.057
BF4T:MMP-1 | 0.015 | 0.0095 ± 0.0078 | -0.0125 ± 0.025 | -0.004 ± 0.028 | -0.001 ± 0.013 | 0.0025 ± 0.0021 | 0.008 ± 0.0042 | 0.0205 ± 0.023 | 0 ± 0.014 | -0.005 ± 0.0057 | 0.0085 ± 0.0092 | 0.003 ± 0.0085 | 0.01 ± 0.0099 | -0.0035 ± 0.022 | 0.0155 ± 0.026 | 0.027 ± 0.03 | 0.0065 ± 0.025 | 0.003 ± 0.031 | 0.003 ± 0.0071
BF4T:MMP-3 | -0.0145 ± 0.025 | 0.0505 ± 0.023 | -0.0065 ± 0.029 | -0.0075 ± 0.025 | 0.0065 ± 0.0078 | -0.001 ± 0.024 | 0.0105 ± 0.0035 | 0.043 ± 0.016 | -0.015 ± 0.011 | -0.0145 ± 0.0092 | -0.0045 ± 0.04 | -0.0515 ± 0.0035 | -0.0285 ± 0.015 | -0.0095 ± 0.013 | -0.0015 ± 0.029 | 0.042 ± 0.1 | 0.0075 ± 0.0021 | -0.005 ± 0.02 | 0.0065 ± 0.012
BF4T:MMP-9 | -0.012 ± 0.014 | -0.032 ± 0.0014 | -0.028 ± 0.059 | -0.028 ± 0.031 | -0.0155 ± 0.022 | -0.002 ± 0.0028 | -0.0125 ± 0.011 | 0.032 ± 0.013 | -0.0115 ± 0.0064 | -0.0115 ± 0.019 | -0.0005 ± 0.035 | -0.047 ± 0.0099 | -0.057 ± 0.013 | 0.012 ± 0.0057 | 0.0275 ± 0.0064 | 0.058 ± 0.034 | 0.014 ± 0.017 | 0.0035 ± 0.039 | 0.011 ± 0.04
BF4T:PAI-I | 0.014 ± 0.0014 | -0.0105 ± 0.00071 | -0.0215 ± 0.019 | -0.018 ± 0.033 | -0.002 ± 0.011 | 0.0015 ± 0.0064 | 0.0105 ± 0.0092 | 0.015 ± 0.017 | -0.003 ± 0.0014 | -0.005 ± 0.0028 | 0.007 ± 0.011 | -0.0175 ± 0.0064 | -0.0255 ± 0.005 | 0.004 ± 0.0057 | 0.0125 ± 0.0035 | 0.0085 ± 0.018 | -0.0025 ± 0.0021 | -0.014 ± 0.016 | 0.005 ± 0.027
BF4T:SRB | -0.016 ± 0.0071 | -0.027 ± 0.018 | -0.007 ± 0.0057 | -0.0035 ± 0.0021 | -0.003 ± 0.0028 | -0.0145 ± 0.0035 | -0.0085 ± 0.0021 | 0.0025 ± 0.022 | -0.011 ± 0.0085 | -0.008 ± 0.0071 | 0.001 ± 0.0099 | -0.01 ± 0.013 | -0.016 ± 0.0014 | -0.007 ± 0.0057 | -0.015 | -0.005 ± 0.0099 | -0.01 ± 0.0085 | -0.0075 ± 0.00071 | -0.005 ± 0.0099
BF4T:tPA | 0.0595 ± 0.0064 | 0.067 ± 0.0028 | -0.0365 ± 0.05 | -0.0115 ± 0.063 | -0.041 ± 0.068 | 0.0015 ± 0.037 | 0.0035 ± 0.018 | 0.019 ± 0.04 | -0.0295 ± 0.005 | -0.0215 ± 0.029 | -0.009 ± 0.061 | 0.006 ± 0.034 | -0.0195 ± 0.022 | -0.036 ± 0.017 | -0.015 ± 0.016 | 0.0145 ± 0.057 | -0.0065 ± 0.013 | 0.0015 ± 0.005 | 0.0135 ± 0.018
BF4T:uPA | 0.008 ± 0.0028 | 0.0055 ± 0.012 | -0.04 ± 0.027 | -0.011 ± 0.011 | 0.0005 ± 0.025 | -0.009 ± 0.021 | -0.0015 ± 0.012 | 0.0155 ± 0.042 | -0.0315 ± 0.029 | -0.031 ± 0.023 | -0.0175 ± 0.033 | -0.031 ± 0.011 | -0.0285 ± 0.039 | -0.0085 ± 0.00071 | -0.02 ± 0.0085 | 0.0085 ± 0.03 | -0.0045 ± 0.03 | -0.006 ± 0.013 | -0.006 ± 0.014
BT:B cell Proliferation | 0.0165 ± 0.005 | -0.0405 ± 0.059 | 0.015 ± 0.0028 | 0.031 ± 0.048 | 0.0535 ± 0.042 | -0.022 ± 0.023 | 0.0015 ± 0.022 | 0.0135 ± 0.005 | 0.009 ± 0.0057 | 0.0215 ± 0.06 | 0.0275 ± 0.012 | -0.007 ± 0.0057 | 0.038 ± 0.0042 | -0.002 ± 0.0071 | 0.0275 ± 0.0092 | 0.065 ± 0.016 | 0.0055 ± 0.018 | -0.02 ± 0.025 | -0.003 ± 0.03
BT:PBMC Cytotoxicity | -0.003 ± 0.027 | -0.0615 ± 0.0035 | -0.011 ± 0.0099 | 0 ± 0.017 | 0.0015 ± 0.071 | -0.0195 ± 0.061 | -0.0215 ± 0.019 | -0.0005 ± 0.029 | 0.0075 ± 0.035 | -0.0055 ± 0.0078 | 0.0255 ± 0.013 | -0.0395 ± 0.012 | 0.02 ± 0.0028 | 0.02 ± 0.0028 | -0.0165 ± 0.0021 | 0.056 ± 0.016 | 0.014 ± 0.0099 | 0.0025 ± 0.025 | 0.0105 ± 0.013
BT:Secreted IgG | -0.002 ± 0.016 | -1.16 ± 0.3 | 0.003 ± 0.016 | -0.016 ± 0.018 | -0.018 ± 0.0057 | -0.0085 ± 0.0021 | 0.01 ± 0.018 | 0.0155 ± 0.0035 | -0.0065 ± 0.016 | 0.0145 ± 0.0035 | -0.009 ± 0.059 | 0.02 ± 0.0071 | 0.016 ± 0.0014 | -0.0115 ± 0.0035 | -0.0005 ± 0.03 | -0.059 ± 0.013 | 0.034 ± 0.0085 | -0.005 ± 0.031 | 0.0285 ± 0.025
BT:sIL-2 | -0.046 ± 0.03 | -0.339 ± 0.076 | 0.0035 ± 0.053 | 0.0105 ± 0.11 | 0.01 ± 0.072 | -0.002 ± 0.13 | -0.0015 ± 0.032 | 0.016 ± 0.0042 | -0.0115 ± 0.17 | 0.0385 ± 0.00071 | 0.0385 ± 0.0078 | 0.017 ± 0.016 | -0.0155 ± 0.071 | 0.0175 ± 0.042 | 0.007 ± 0.016 | 0.0175 ± 0.035 | 0.068 ± 0.017 | -0.041 ± 0.059 | 0.0165 ± 0.0092
BT:sIL-6 | 0.078 ± 0.0014 | -0.049 ± 0.054 | 0.021 ± 0.059 | -0.009 ± 0.059 | -0.0235 ± 0.064 | 0.004 ± 0.11 | 0.0285 ± 0.036 | -0.0045 ± 0.05 | -0.0355 ± 0.1 | 0.01 ± 0.051 | 0.022 ± 0.04 | 0.011 ± 0.042 | -0.02 ± 0.041 | 0.019 ± 0.044 | 0.019 ± 0.025 | 0.0035 ± 0.047 | 0.0565 ± 0.0078 | -0.013 ± 0.0071 | -0.0215 ± 0.046

Reference: the supplement of paper PMC10331698
